Measurements reported in patent US12018011B2, “Macrocyclic compounds and compositions, and methods of preparing and using the same” (Kura Oncology, Inc., priority 2021, dated 2024).

What was measured:
[1] = target: T1, Recombinant human farnesyl transferase (FTase) (Homo sapiens, UniProt P49356); experiment: FTase fluorescence assay (farnesylation of dansyl-GCVLS peptide); type: biochemical; details: recombinant human FTase 2.5 nM, Dansyl-GCVLS 85 nM, FPP 30 nM, 30° C., 50 minutes
T1 construct: purchased Crelux (Martinsried, Germany)

[2] = Metabolic stability in human liver microsomes; type: in vitro ADME; details: human liver microsomes 0.5 mg protein/mL, test compound 1 μM, 37° C.; read-out: T1/2 in HLM
Protocol: (§1) The metabolic stability of the compounds disclosed herein was determined by measuring half-life (T1/2) of the compounds in the presence of mouse liver microsomes (MLM) or human liver microsomes (BILM).
(§2) Intermediate solution: 5 μL of compound and control stock solution (10 mM in dimethyl sulfoxide (DMSO)) were diluted with 495 μL of acetonitrile (ACN) (intermediate solution concentration: 100 μM, 99% ACN).
(§3) Working solution: 50 μL of compound and control intermediate solution (100 μM) were diluted with 450 μL of 100 mM potassium phosphate buffer (working solution concentration: 10 μM, 9.9% ACN).
(§4) Controls used in this assay: Testosterone, Diclofenac, and Propafenone.
(§5) Preparation Procedure: The appropriate amount of NADPH powder was weighed and diluted into a 10 mM MgCl2 solution (working solution concentration: 10 unit/mL; final concentration in reaction system: 1 unit/mL).
(§6) The appropriate concentrations of microsome working solutions were prepared in 100 mM potassium phosphate buffer.
(§7) Cold (4° C.) acetonitrile (CAN) containing 200 ng/mL tolbutamide and 200 ng/mL labetalol as internal standards (IS) was used as the stop solution.
(§8) Using an Apricot automation workstation, 10 μL/well of compound working solution were added to all 96-well reaction plates except the blank (T0, T5, T10, T20, T30, T60, and NCF60).
(§9) An Apricot automation workstation was used to add 80 μL/well of microsome solution to all reaction plates (Blank, T0, T5, T10, T20, T30, T60, and NCF60).
(§10) All reaction plates containing mixtures of compound and microsomes were pre-incubated at 37° C. for 10 minutes.
(§11) An Apricot automation workstation was used to add 10 μL/well of 100 mM potassium phosphate buffer to reaction plate NCF60.
(§12) Reaction plate NCF60 was incubated at 37° C. for 60 minutes.
(§13) After pre-incubation, an Apricot automation workstation was used to add 10 μL/well of NADPH regenerating system to every reaction plate except NCF60 (Blank, T0, T5, T10, T20, T30, and T60) to start the reaction. Final concentration of each component in incubation medium: Microsome (0.5 mg protein/mL); Test Compound (1 μM); Control Compound (1 μM); Acetonitrile (0.99%); DMSO (0.01%).
(§14) The reaction plates were incubated at 37° C. for 0 minute (T0, stop solution was added prior to microsome and NADPH solutions), 5 minutes (T5), 10 minutes (T10), 20 minutes (T20), 30 minutes (T30), 60 minutes (T60).
(§15) An Apricot automation workstation was used to add 300 μL/well of stop solution to each reaction plate at its appropriate end time point to terminate the reaction.
(§16) Each plate was sealed and shaken for 10 minutes.
(§17) After shaking, each plate was centrifuged at 4000 rpm and 4° C. for 20 minutes.
(§18) During centrifugation, an Apricot automation workstation was used to add 300 µL/well of HPLC grade water to eight new 96-well plates.
(§19) After centrifugation, an Apricot automation workstation was used to transfer 100 μL of supernatant from each reaction plate to its corresponding bioanaylsis plate.
(§20) Each bioanalysis plate was sealed and shaken for 10 minutes prior to LC-MS/MS analysis.
(§21) The equation of first order kinetics was used to calculate T1/2 and CLint(mic) (μL/min/mg).

[3] = target: T2, geranylgeranyl transferase type-1 (GGTase) (Homo sapiens, UniProt P53609); experiment: GGTase fluorescence assay (dansyl-GCVLL peptide, GGPP); type: biochemical; details: GGTase 25 nM, Dansyl-GCVLL 10 μM, GGPP 10 μM, 30° C., 120 minutes
T2 construct: purchased Crelux (Martinsried, Germany)
Excerpt: T24/83 cell line was purchased from the European Collection of Authenticated Cell Cultures (Salisbury, UK). Recombinant human farnesyl transferase (FTase) and geranylgeranyl transferase type-1 (GGTase) were obtained from Crelux (Martinsried, Germany). Dansyl labelled GCVLS peptide was purchased from Bachem (Torrance, CA), and Dansyl labelled GCVLL peptide was purchased from Bio Synthesis (Lewisville, TX). Farnesyl Pyrophosphate (FPP) and Geranylgeranyl pyrophosphate (GGPP) were purchased from Cayman (Ann Arbor, MI).
Geranylgeranyl transferase (GGTase) is a closely related enzyme to farnesyl transferase (FTase). The two enzymes share a common regulatory chain but have distinct individual enzymatic domains. GGTase catalyses the addition of an alternative prenylated side chain to some of the same proteins that may also be farnesylated. Thus, selective inhibitory activity against FTase relative to GGTase is a critical characteristic for FTase inhibitors.
The IC50 value of the compounds disclosed herein as inhibitors of Ftase and/or GGTase, was determined by measuring the concentration (provided in nM) necessary to achieve inhibition of enzyme activity by 50% (IC50). […] Compounds having a low IC50 value against FTase, for example an IC50 (FTase)<100 nM, such as an IC50 (FTase)<10 nM, are preferred. Compounds having a low IC50 value against FTase and a high IC50 value against GGTase, for example an IC50 (FTase)<100 nM, such as an IC50 (FTase)<10 nM, and an IC50 (GGTase)>100 nM, are potent and selective inhibitors of FTase, and are particularly preferred.
The inhibition activities of the compounds disclosed herein against Ftase and GGTase were measured in the respective fluorescence assays as follows:
For the GGTase assay, GGTase (25 nM), Dansyl labelled GCVLL peptide (10 μM), GGPP (10 μM) and inhibitor were mixed in assay buffer (50 mM Tris, pH 7.5, 10 mM magnesium chloride, 10 μM zinc chloride, 0.08% CHAPS, 5 mM dithiothreitol) and incubated in a total volume of 20 μL at 30° C. for 120 minutes.
For both the FTase assay and GGTase assay, fluorescence intensity was detected (excitation at 340 nm and emission at 486 nm) using EnVision (PerkinElmer; Waltham, MA), IC50 determinations were performed using a sigmoidal dose-response model with Xlfit software (IDBS, Inc.; Boston, MA), and tipifarnib was used as a positive control. All the assay plates for each assay passed the QC criteria (S/B, Z factor).

[4] = Metabolic stability in mouse liver microsomes; type: in vitro ADME; details: CD-1 mouse liver microsomes 0.5 mg protein/mL, test compound 1 μM, 37° C.; read-out: T1/2 in MLM
Protocol: as §1, §2, §3, §4, §5, §6, §7, §8, §9, §10, §11, §12, §13, §14, §15, §16, §17, §18, §19, §20, §21

T24/83 cells = experiment: T24/83 cell proliferation assay (CellTiter-Glo); type: cell-based; details: Homo sapiens, 96 h, 4 days
Procedure, shortened: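 HRAS-mutant T24/83 bladder carcinoma cells seeded at 100 cells/well and grown with inhibitor for 4 days at 37 °C; 0.7% DMSO negative control, 100 μM tipifarnib positive control. Viability by CellTiter-Glo luminescence.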

SMILES	IC50 [1]	half-life at 1 μM [2]	IC50 [3]	half-life at 1 μM [4]	IC50 (T24/83 cells)
Cn1cncc1[C@@]1(O)c2ccc(Cl)c(c2)OCc2cccc(c2)-c2cc(=O)n(C)c3ccc1cc23 [(S)-14, (S)-4^4-chloro-3-hydroxy-2^1-methyl-3-(1-methyl-1H-imidazol-5-yl)-2^1,2^2-dihydro-5-oxa-2(4,6)-quinolina-1,4(1,3)-dibenzenacyclohexaphan-2^2-one]	≤ 10 nM	30 to 100 min	> 1000 nM	< 5 min	50 to 500 nM
Cn1cnnc1[C@@]1(N)c2ccc(Cl)c(c2)COc2cccc(c2)-c2cc(=O)n(C)c3ccc1cc23 [(S)-51, (S)-3-amino-4^4-chloro-2^1-methyl-3-(4-methyl-4H-1,2,4-triazol-3-yl)-2^1,2^2-dihydro-6-oxa-2(4,6)-quinolina-1,4(1,3)-dibenzenacyclohexaphan-2^2-one]	≤ 10 nM	> 100 min	> 1000 nM	> 15 min	50 to 500 nM
Cn1cncc1[C@@]1(N)c2ccc(Cl)c(c2)COc2cccc(c2)-c2cc(=O)n(C)c3ccc1cc23 [(S)-46, (S)-3-amino-4^4-chloro-2^1-methyl-3-(1-methyl-1H-imidazol-5-yl)-2^1,2^2-dihydro-6-oxa-2(4,6)-quinolina-1,4(1,3)-dibenzenacyclohexaphan-2^2-one]	≤ 10 nM	> 100 min	> 1000 nM	5 to 15 min	≤ 50 nM
Cn1cncc1[C@@]1(O)c2ccc(Cl)c(c2)CCc2cccc(c2)-c2cc(=O)n(C)c3ccc1cc23 [(S)-3, (S)-4^4-chloro-3-hydroxy-2^1-methyl-3-(1-methyl-1H-imidazol-5-yl)-2^1,2^2-dihydro-2(4,6)-quinolina-1,4(1,3)-dibenzenacyclohexaphan-2^2-one]	≤ 10 nM	< 30 min	> 1000 nM	5 to 15 min	≤ 50 nM
[2H]C([2H])([2H])n1c(=O)cc2c3cc(ccc31)[C@@](N)(c1cncn1C)c1ccc(C#N)c(c1)COc1cccc-2c1 [(S)-56, (S)-3-amino-2^1-(methyl-d3)-3-(1-methyl-1H-imidazol-5-yl)-2^2-oxo-2^1,2^2-dihydro-6-oxa-2(4,6)-quinolina-1,4(1,3)-dibenzenacyclohexaphane-4^4-carbonitrile]	≤ 10 nM	> 100 min	> 1000 nM	> 15 min	≤ 50 nM
Cn1cncc1[C@@]1(N)c2ccc(Cl)c(c2)CCc2cccc(c2)-c2cc(=O)n(C)c3ccc1cc23 [(S)-4, (S)-3-amino-4^4-chloro-2^1-methyl-3-(1-methyl-1H-imidazol-5-yl)-2^1,2^2-dihydro-2(4,6)-quinolina-1,4(1,3)-dibenzenacyclohexaphan-2^2-one]	≤ 10 nM	< 30 min	> 1000 nM	< 5 min	≤ 50 nM
[2H]C([2H])([2H])n1c(=O)cc2c3cc(ccc31)[C@@](N)(c1cncn1C)c1ccc(C#N)c(c1)CCc1cccc-2c1 [(R)-8, (R)-3-amino-2^1-(methyl-d3)-3-(1-methyl-1H-imidazol-5-yl)-2^2-oxo-2^1,2^2-dihydro-2(4,6)-quinolina-1,4(1,3)-dibenzenacyclohexaphane-4^4-carbonitrile]	≤ 10 nM	< 30 min	> 1000 nM	5 to 15 min	≤ 50 nM

The next lines start with the values.

IC50 [1]	half-life at 1 μM [2]	IC50 [3]	half-life at 1 μM [4]	IC50 (T24/83 cells)	SMILES
≤ 10 nM	< 30 min	> 1000 nM	< 5 min	≤ 50 nM	Cn1cncc1[C@@]1(N)c2ccc(Cl)c(c2)OCCc2cccc(c2)-c2cc(=O)n(C)c3ccc1cc23 [(S)-27, (S)-3-amino-4^4-chloro-2^1-methyl-3-(1-methyl-1H-imidazol-5-yl)-2^1,2^2-dihydro-5-oxa-2(4,6)-quinolina-1,4(1,3)-dibenzenacycloheptaphan-2^2-one]
≤ 10 nM	30 to 100 min	> 1000 nM	5 to 15 min	≤ 50 nM	Cn1cncc1[C@@]1(O)c2ccc(C#N)c(c2)OCc2cccc(c2)-c2cc(=O)n(C)c3ccc1cc23 [(S)-18, (S)-3-hydroxy-2^1-methyl-3-(1-methyl-1H-imidazol-5-yl)-2^2-oxo-2^1,2^2-dihydro-5-oxa-2(4,6)-quinolina-1,4(1,3)-dibenzenacyclohexaphane-4^4-carbonitrile]
≤ 10 nM	< 30 min	> 1000 nM	< 5 min	≤ 50 nM	Cn1cncc1[C@@](N)(c1ccc(Cl)cc1)c1ccc2c(c1)c(-c1cccc(Cl)c1)cc(=O)n2C [Tipifarnib, tipifarnib, reference compound]
≤ 10 nM	30 to 100 min	> 1000 nM	< 5 min	50 to 500 nM	Cn1cncc1[C@@]1(N)c2ccc(Cl)c(c2)OCc2cccc(c2)-c2cc(=O)n(C)c3ccc1cc23 [(S)-15, (S)-3-amino-4^4-chloro-2^1-methyl-3-(1-methyl-1H-imidazol-5-yl)-2^1,2^2-dihydro-5-oxa-2(4,6)-quinolina-1,4(1,3)-dibenzenacyclohexaphan-2^2-one]
≤ 10 nM	< 30 min	> 1000 nM	< 5 min	≤ 50 nM	Cn1cncc1[C@@]1(N)c2ccc(C#N)c(c2)OCCc2cccc(c2)-c2cc(=O)n(C)c3ccc1cc23 [(S)-37, (S)-3-amino-2^1-methyl-3-(1-methyl-1H-imidazol-5-yl)-2^2-oxo-2^1,2^2-dihydro-5-oxa-2(4,6)-quinolina-1,4(1,3)-dibenzenacycloheptaphane-4^4-carbonitrile]
